Measurements reported in US20240174692A1, “PYRIMIDINE AROMATIC RING COMPOUNDS” (Medshine Discovery Inc., priority 2021, published 2024).

Tests used:
plasma protein [1] = experiment: Plasma protein binding (PPB), equilibrium dialysis, R plasma; format: in vitro ADME, rat; details: 2 μM, 4 hr dialysis
Protocol: (§1) Assay procedure: 995 μL of blank plasma of various genera were weighed, and 5 μL of assay compound working solution (400 μM) or warfarin working solution (400 μM) was added so that the final concentrations of the assay compound and warfarin in plasma sample were each 2 μM. The samples were mixed thoroughly. The final concentration of DMSO (the organic phase) was 0.5%. 50 μL of the plasma samples of the assay compound and warfarin were pipetted to a sample receiving plate (in triplicate), and the corresponding volume of corresponding blank plasma or buffer was added immediately, so that the final volume in each sample well was 100 μL, wherein the volume ratio of plasma:dialysis buffer was 1:1. 500 μL of stop solution was then added to these samples. These samples were used as T0 samples for determination of recovery and stability. […] All samples were subjected to protein precipitation, and then analyzed by LC/MS/MS. Bound rate and recovery rate of protein were calculated using the following formulae: % Unbound=100*F/T % Bound=100−% Unbound, % Recovery=100*(F+T)/T0 (wherein F is the peak area ratio of the compound in the dialysate after 4 h of dialysis; T is the peak area ratio of the compound in the plasma after 4 h of dialysis; T0 is the peak area ratio of the compound in the plasma sample at time zero).

[2] = system: human colon cancer GP2D xenograft tumor; experiment: In vivo pharmacodynamic study, GP2D xenograft tumor model in Balb/c nude mouse; details: PO
Protocol: An xenograft tumor model in GP2D Balb/c nude mouse:
Assay method: A Balb/c nude mouse model of subcutaneously xenograft tumor of human colon cancer GP2D cells was established. 0.2 mL (2×10^6) of GP2D cells (Matrigel was added, and volume ratio was 1:1) were inoculated subcutaneously on the right back of each mouse. When the average tumor volume reached 149 mm^3, the administration was started by group, with 6 mice in each group. On the day of the assay, the animals were administered the corresponding drugs according to the corresponding groups. The first group G1 was set as a negative control group, which was given 5% DMSO+95%(10% HP-β-CD) alone by gavage administration. The second group G2 to the fifth group G5 were given compound 014, and the dosage and protocol of administration were shown in Table 19.
During the assay, the body weight of animals and the tumor size were measured twice a week. Meanwhile, clinical symptoms of animals were observed and recorded every day. Each administration was referenced to the most recent body weight of animals.
The length (a) and width (b) of a tumor were measured with a digital vernier caliper. The calculation formula of tumor volume (TV) was: TV=a×b^2/2.

[3] = Pharmacokinetic evaluation of compounds in dogs; format: in vivo; details: dog, plasma, Beagle dogs
Protocol: Purpose of assay: To assay the pharmacokinetic data of the compounds in Beagle dogs in vivo.
(§2) Compound 014 was mixed with vehicle 20% DMSO/60% PEG400/20% (10% HP-β-CD in water), and the mixture was vortexed and sonicated to give a clear solution of 4 mg/mL. The candidate compound solutions were administered intravenously. Whole blood was collected for a certain period of time to prepare plasma. The drug concentration was analyzed by LC-MS/MS method, and pharmacokinetic parameters were calculated.
as §2, with “mixed (15 mg/mL)” for “mixed”, “give solutions” for “give a clear solution”, “of 6 mg/mL to 15” for “of 4”, “administered orally.” for “administered intravenously.”

[4] = Pharmacokinetic evaluation of compounds in mice; format: in vivo, CD-1 mice; details: CD-1 male mice
Protocol: Purpose of assay: To assay the pharmacokinetic data of the compounds in CD-1 mice in vivo.
(§3) Compounds were mixed with vehicle 5% DMSO/95% (10% HP-β-CD aqueous solution), and the mixture was vortexed and sonicated to give 0.2 mg/mL-0.3 mg/mL clear solutions. CD-1 male mice aged 7 to 10 weeks were selected, and the candidate compound solution was administered intravenously. Whole blood was collected for a certain period of time to prepare the plasma. The drug concentration was analyzed by LC-MS/MS method and pharmacokinetic parameters were calculated by Phoenix WinNonlin software (Pharsight, USA).
as §3, with “in water),” for “aqueous solution),”, “1.6 mg/mL to 4.0” for “0.2 mg/mL-0.3”, “orally administered.” for “administered intravenously.”, “prepare” for “prepare the”, “method,” for “method”

plasma protein [5] = experiment: Plasma protein binding (PPB), equilibrium dialysis, H plasma; format: in vitro ADME, human; details: 2 μM, 4 hr dialysis
Protocol: as §1

C#Cc1c(F)ccc2cc(N)cc(-c3ccc4c(N5CC6CCC(C5)N6)nc(OC[C@@]56CCCN5C[C@H](F)C6)nc4c3F)c12 [Compound 014]
Unbound PPB R (plasma protein [1]): 2.0% | Tumor volume inhibition rate TGI ([2]; G2, 25 mg/kg, BID*22, at day 14): 84.2% | Tumor volume inhibition rate TGI ([2]; G3, 50 mg/kg, BID*22, at day 14): 89.4% | Tumor volume inhibition rate TGI ([2]; G4, 150 mg/kg, BID*22, at day 14): 97.3% | Tumor volume inhibition rate TGI ([2]; G5, 150 mg/kg, QD*22): 91.4% | AUC(0-inf) ([3]; IV, 1.56 mg/kg): 150 nM·h | C0 ([3]; IV, 1.56 mg/kg): 0.971 µM | Vd ([3]; IV, 1.56 mg/kg): 5.89 L/kg | clearance ([3]; IV, 1.56 mg/kg): 16.3 L/h/kg | half-life ([3]; IV, 1.56 mg/kg): 0.56 h | AUC(0-inf) ([3]; PO, 32.1 mg/kg): 969 nM·h | Cmax ([3]; PO, 32.1 mg/kg): 0.439 µM | bioavailability ([3]; PO, 32.1 mg/kg): 16.9% | half-life ([3]; PO, 32.1 mg/kg): 10.8 h | AUCu ([4]; PO, 16.0 mg/kg, AUCu = AUC0-inf *Unbound PPB (Mouse)): 67.1 nM·h | AUC(0-inf) ([4]; mouse, plasma, IV, 1.28 mg/kg): 565 nM·h | C0 ([4]; mouse, plasma, IV, 1.28 mg/kg): 0.953 µM | Vd ([4]; mouse, plasma, IV, 1.28 mg/kg): 25.6 L/kg | clearance ([4]; mouse, plasma, IV, 1.28 mg/kg): 4.62 L/h/kg | half-life ([4]; mouse, plasma, IV, 1.28 mg/kg): 5.7 h | AUC(0-inf) ([4]; mouse, plasma, PO, 16.0 mg/kg): 1490 nM·h | Cmax ([4]; mouse, plasma, PO, 16.0 mg/kg): 0.524 µM | bioavailability ([4]; mouse, plasma, PO, 16.0 mg/kg): 20.5% | half-life ([4]; mouse, plasma, PO, 16.0 mg/kg): 6 h | Unbound PPB H (plasma protein [5]): 18.5%
